In ChEMBL document CHEMBL1201862, “PubChem BioAssay data set” (2004):
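1) Cells in 96-well plates. 2) Compound, 48 h, 5 concentrations. 3) Linear interpolation between surrounding doses. 4) Unreached endpoint = highest concentration. GI50 is the concentration that inhibits growth by half.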 Active and inactive are the calls of the source. Cut-off read from the data, not from the text of the source: active = GI50 up to about 1.1 µM and inactive = higher.

Key:
Test in all cases: DTP human tumour cell line panel, 48 h
[1] = tested on: OVCAR-3
[2] = tested on: SR
[3] = tested on: M14
[4] = tested on: MDA-MB-435
[5] = tested on: SN12C
[6] = tested on: HCT-15
[7] = tested on: ACHN
[8] = tested on: NCI-H522
[9] = tested on: SW-620
[10] = tested on: MCF7
[11] = tested on: DU-145
[12] = tested on: TK-10
[13] = tested on: MOLT-4
[14] = tested on: UACC-62
[15] = tested on: NCI/ADR-RES
[16] = tested on: MDA-MB-231
[17] = tested on: EKVX
[18] = tested on: HL-60
[19] = tested on: CCRF-CEM
[20] = tested on: LOX IMVI
[21] = tested on: HT-29
[22] = tested on: U-251
[23] = tested on: T47D
[24] = tested on: SF-295
[25] = tested on: HCT-116
[26] = tested on: IGROV-1
[27] = tested on: Hs-578T
[28] = tested on: OVCAR-4
[29] = tested on: Malme-3M
[30] = tested on: SNB-75
[31] = tested on: HOP-62
[32] = tested on: SF-539
[33] = tested on: RXF 393
[34] = tested on: RPMI-8226
[35] = tested on: BT-549
[36] = tested on: A498
[37] = tested on: NCI-H460
[38] = tested on: KM12
[39] = tested on: SK-MEL-5
[40] = tested on: CAKI-1
[41] = tested on: SF-268
[42] = tested on: UACC-257
[43] = tested on: PC-3
[44] = tested on: UO-31
[45] = tested on: MDA-N
[46] = tested on: COLO 205
[47] = tested on: SK-MEL-28
[48] = tested on: OVCAR-8
[49] = tested on: OVCAR-5
[50] = tested on: SNB-19
[51] = tested on: HOP-92
[52] = tested on: NCI-H226
[53] = tested on: NCI-H23
[54] = tested on: SK-MEL-2
[55] = tested on: HCC 2998
[56] = tested on: A549
[57] = tested on: SK-OV-3
[58] = tested on: 786-0
[59] = tested on: K562

Structure (SMILES): Cc1ccc(NC(=O)CC(=O)n2nc(C)c(/N=N/c3cccc(C)c3)c2C)cc1
- GI50 [1]: > 100 µM (inactive)
- GI50 [2]: 61.7 µM (inactive)
- GI50 [3]: > 100 µM (inactive)
- GI50 [4]: > 100 µM (inactive)
- GI50 [5]: > 100 µM (inactive)
- GI50 [6]: > 100 µM
- GI50 [7]: > 100 µM (inactive)
- GI50 [8]: > 100 µM (inactive)
- GI50 [9]: > 100 µM (inactive)
- GI50 [10]: > 100 µM (inactive)
- GI50 [11]: > 100 µM (inactive)
- GI50 [12]: > 100 µM (inactive)
- GI50 [13]: > 100 µM (inactive)
- GI50 [14]: > 100 µM (inactive)
- GI50 [15]: > 100 µM (inactive)
- GI50 [16]: > 100 µM (inactive)
- GI50 [17]: 31 µM (inactive)
- GI50 [18]: 38 µM (inactive)
- GI50 [19]: 86.3 µM (inactive)
- GI50 [20]: > 100 µM (inactive)
- GI50 [21]: > 100 µM (inactive)
- GI50 [22]: > 100 µM (inactive)
- GI50 [23]: > 100 µM (inactive)
- GI50 [24]: > 100 µM (inactive)
- GI50 [25]: > 100 µM (inactive)
- GI50 [26]: > 100 µM (inactive)
- GI50 [27]: 38.5 µM (inactive)
- GI50 [28]: > 100 µM (inactive)
- GI50 [29]: > 100 µM (inactive)
- GI50 [30]: 18.1 µM (inactive)
- GI50 [31]: 65.8 µM (inactive)
- GI50 [32]: > 100 µM (inactive)
- GI50 [33]: 67.3 µM (inactive)
- GI50 [34]: > 100 µM (inactive)
- GI50 [35]: > 100 µM (inactive)
- GI50 [36]: > 100 µM (inactive)
- GI50 [37]: > 100 µM (inactive)
- GI50 [38]: > 100 µM (inactive)
- GI50 [39]: > 100 µM (inactive)
- GI50 [40]: > 100 µM (inactive)
- GI50 [41]: 69 µM (inactive)
- GI50 [42]: > 100 µM (inactive)
- GI50 [43]: > 100 µM (inactive)
- GI50 [44]: > 100 µM (inactive)
- GI50 [45]: > 100 µM (inactive)
- GI50 [46]: > 100 µM (inactive)
- GI50 [47]: > 100 µM (inactive)
- GI50 [48]: > 100 µM (inactive)
- GI50 [49]: > 100 µM (inactive)
- GI50 [50]: 71.1 µM (inactive)
- GI50 [51]: 14 µM (inactive)
- GI50 [52]: > 100 µM (inactive)
- GI50 [53]: > 100 µM (inactive)
- GI50 [54]: > 100 µM (inactive)
- GI50 [55]: > 100 µM (inactive)
- GI50 [56]: > 100 µM (inactive)
- GI50 [57]: > 100 µM (inactive)
- GI50 [58]: > 100 µM (inactive)

Structure (SMILES): O=C1OC[C@@H]2[C@@H](O)CCCCCN12
- GI50 [1]: > 100 µM (inactive)
- GI50 [2]: > 100 µM (inactive)
- GI50 [4]: > 100 µM (inactive)
- GI50 [5]: > 100 µM (inactive)
- GI50 [6]: > 100 µM
- GI50 [7]: > 100 µM (inactive)
- GI50 [8]: > 100 µM (inactive)
- GI50 [9]: > 100 µM (inactive)
- GI50 [10]: > 100 µM (inactive)
- GI50 [11]: > 100 µM (inactive)
- GI50 [12]: > 100 µM (inactive)
- GI50 [13]: > 100 µM (inactive)
- GI50 [14]: > 100 µM (inactive)
- GI50 [15]: > 100 µM (inactive)
- GI50 [16]: > 100 µM (inactive)
- GI50 [17]: > 100 µM (inactive)
- GI50 [18]: > 100 µM (inactive)
- GI50 [19]: > 100 µM (inactive)
- GI50 [20]: > 100 µM (inactive)
- GI50 [21]: > 100 µM (inactive)
- GI50 [22]: > 100 µM (inactive)
- GI50 [23]: > 100 µM (inactive)
- GI50 [59]: > 100 µM (inactive)
- GI50 [24]: > 100 µM (inactive)
- GI50 [25]: > 100 µM (inactive)
- GI50 [26]: > 100 µM (inactive)
- GI50 [27]: > 100 µM (inactive)
- GI50 [28]: > 100 µM (inactive)
- GI50 [30]: > 100 µM (inactive)
- GI50 [31]: > 100 µM (inactive)
- GI50 [32]: > 100 µM (inactive)
- GI50 [33]: > 100 µM (inactive)
- GI50 [34]: > 100 µM (inactive)
- GI50 [35]: > 100 µM (inactive)
- GI50 [36]: > 100 µM (inactive)
- GI50 [37]: > 100 µM (inactive)
- GI50 [38]: > 100 µM (inactive)
- GI50 [39]: > 100 µM (inactive)
- GI50 [40]: > 100 µM (inactive)
- GI50 [42]: > 100 µM (inactive)
- GI50 [43]: > 100 µM (inactive)
- GI50 [44]: > 100 µM (inactive)
- GI50 [45]: > 100 µM (inactive)
- GI50 [46]: > 100 µM (inactive)
- GI50 [47]: > 100 µM (inactive)
- GI50 [48]: > 100 µM (inactive)
- GI50 [49]: > 100 µM (inactive)
- GI50 [50]: > 100 µM (inactive)
- GI50 [51]: > 100 µM (inactive)
- GI50 [52]: > 100 µM (inactive)
- GI50 [54]: > 100 µM (inactive)
- GI50 [55]: > 100 µM (inactive)
- GI50 [56]: > 100 µM (inactive)
- GI50 [57]: > 100 µM (inactive)
- GI50 [58]: > 10 µM (inactive)

Structure (SMILES): O=C1c2ccc3cc(CCl)cc(O)c3c2C(=O)c2cccc(O)c21
- GI50 [1]: 0.152 µM (active)
- GI50 [2]: 0.447 µM (active)
- GI50 [3]: 0.239 µM (active)
- GI50 [4]: 0.179 µM (active)
- GI50 [5]: 1.5 µM (inactive)
- GI50 [6]: 1.1 µM
- GI50 [7]: 2.91 µM (inactive)
- GI50 [8]: 3.28 µM (inactive)
- GI50 [9]: 0.145 µM (active)
- GI50 [10]: 0.729 µM (active)
- GI50 [11]: 4.95 µM (inactive)
- GI50 [12]: > 10 µM (inactive)
- GI50 [13]: 1.37 µM (inactive)
- GI50 [14]: 1.22 µM (inactive)
- GI50 [15]: 2.02 µM (inactive)
- GI50 [16]: 1.08 µM (active)
- GI50 [17]: > 10 µM (inactive)
- GI50 [18]: 0.284 µM (active)
- GI50 [19]: 1.07 µM (active)
- GI50 [20]: 2.96 µM (inactive)
- GI50 [22]: 2.72 µM (inactive)
- GI50 [23]: 7.48 µM (inactive)
- GI50 [59]: 3.44 µM (inactive)
- GI50 [24]: > 10 µM (inactive)
- GI50 [25]: 1.1 µM (active)
- GI50 [26]: > 10 µM (inactive)
- GI50 [27]: > 10 µM (inactive)
- GI50 [28]: 2.67 µM (inactive)
- GI50 [29]: 0.0151 µM (active)
- GI50 [31]: 3.38 µM (inactive)
- GI50 [32]: 2.39 µM (inactive)
- GI50 [33]: 2.55 µM (inactive)
- GI50 [34]: 2.21 µM (inactive)
- GI50 [35]: > 10 µM (inactive)
- GI50 [36]: > 10 µM (inactive)
- GI50 [37]: 3.3 µM (inactive)
- GI50 [38]: 4.79 µM (inactive)
- GI50 [39]: 0.604 µM (active)
- GI50 [40]: > 10 µM (inactive)
- GI50 [41]: 2.16 µM (inactive)
- GI50 [42]: 1.17 µM (inactive)
- GI50 [43]: 1.81 µM (inactive)
- GI50 [45]: 0.169 µM (active)
- GI50 [46]: 1.95 µM (inactive)
- GI50 [47]: 1.77 µM (inactive)
- GI50 [48]: 2.01 µM (inactive)
- GI50 [49]: > 10 µM (inactive)
- GI50 [50]: 4.58 µM (inactive)
- GI50 [51]: 4.58 µM (inactive)
- GI50 [52]: 2.7 µM (inactive)
- GI50 [53]: 3.12 µM (inactive)
- GI50 [54]: 1.64 µM (inactive)
- GI50 [55]: 3.17 µM (inactive)
- GI50 [56]: 4.61 µM (inactive)
- GI50 [57]: > 10 µM (inactive)
- GI50 [58]: 2.07 µM (inactive)
